These results are taken from ChEMBL document CHEMBL3124770, “Rugulactone derivatives act as inhibitors of NF-κB activation and modulates the transcription of NF-κB dependent genes in MDA-MB-231cells” (Bioorg Med Chem Lett, 2014).

The source made the active and inactive calls. The rule behind the calls is not given here.

Experiment [1] concerns MDA-MB-231. The experiment can be described thus: Effect on p21 gene expression in estrogen receptor-negative human MDA-MB-231 cells at 2 uM after 24 hrs by luciferase reporter gene assay. The format is functional, cell-based. For orientation: In a reporter assay the amount or activity of a reporter protein is the signal.
The subject of experiment [2] is MDA-MB-231. Nature of the experiment: Inhibition of NFkappaB activity in estrogen receptor-negative human MDA-MB-231 cells assessed as retention of NFKappaB/Rel A in cytoplasm at 2 uM after 24 hrs by DAPI/PI staining-based confocal microscopy. Type of experiment: cell-based.
Experiment [3] deals with MDA-MB-231. The experiment can be described thus: Inhibition of NFkappaB activity in estrogen receptor-negative human MDA-MB-231 cells at 2 uM after 24 hrs by SEAP reporter assay. The format is cell-based.
For experiment [4], the system named is MDA-MB-231. Nature of the experiment: Cell cycle arrest in estrogen receptor-negative human MDA-MB-231 cells assessed as accumulation at S phase at 2 uM after 24 hrs by Propidium iodide staining-based flow cytometric analysis (reference value: 19 +/- 1%). The format is functional. In general terms: A flow cytometer gives signals particle by particle.
For experiment [5], the system named is MDA-MB-231. Nature of the experiment: Cell cycle arrest in estrogen receptor-negative human MDA-MB-231 cells assessed as accumulation at G1 phase at 2 uM after 24 hrs by Propidium iodide staining-based flow cytometric analysis (reference value: 54.66 +/- 2.51%). The format is functional.
Experiment [6] has as its system MDA-MB-231. Nature of the experiment: Reduction in HDAC-3 nuclear expression in estrogen receptor-negative human MDA-MB-231 cells at 2 uM after 24 hrs by Western blotting analysis. Type of experiment: functional, cell-based. (In general: In western blotting, separated proteins are transferred to a membrane and probed.)
For experiment [7], the system named is MDA-MB-231. The experiment can be described thus: Reduction in HDAC-8 nuclear expression in estrogen receptor-negative human MDA-MB-231 cells at 2 uM after 24 hrs by Western blotting analysis. The format is functional, cell-based.
Experiment [8] concerns MDA-MB-231. Nature of the experiment: Induction of apoptosis in estrogen receptor-negative human MDA-MB-231 cells assessed as reduced procaspase-3 level at 2 uM after 24 hrs by Western blotting analysis. The format is functional, cell-based.
For experiment [9], the system named is MDA-MB-231. The experiment can be described thus: Induction of apoptosis in estrogen receptor-negative human MDA-MB-231 cells assessed as increase in Rb cleavage at 2 uM after 24 hrs by Western blotting analysis. Type of experiment: functional, cell-based.
Experiment [10] relates to MCF7. Nature of the experiment: Cytotoxicity against estrogen receptor-positive human MCF7 cells assessed as cell viability after 72 hrs by MTT assay. Type of experiment: functional, cell-based. The conditions noted are these: MCF7, 72 h.
Experiment [11] has as its system MDA-MB-231. The experiment can be described thus: Cytotoxicity against estrogen receptor-negative human MDA-MB-231 cells assessed as cell viability after 72 hrs by MTT assay. Type of experiment: functional, cell-based. The conditions noted are these: MDA-MB-231, 72 h.
The subject of experiment [12] is MDA-MB-231. Nature of the experiment: Cell cycle arrest in estrogen receptor-negative human MDA-MB-231 cells assessed as decrease in Cyclin E expression at 2 uM after 24 hrs by Western blotting analysis. The format is functional, cell-based.
The subject of experiment [13] is MDA-MB-231. Nature of the experiment: Induction of apoptosis in estrogen receptor-negative human MDA-MB-231 cells assessed as increase in PARP cleavage at 2 uM after 24 hrs by Western blotting analysis. Type of experiment: functional, cell-based.
The test system of experiment [14] is MDA-MB-231. Nature of the experiment: Cell cycle arrest in estrogen receptor-negative human MDA-MB-231 cells assessed as decrease in CDK2 expression at 2 uM after 24 hrs by Western blotting analysis. The format is functional, cell-based.
In experiment [15] the test system is MDA-MB-231. The experiment can be described thus: Cell cycle arrest in estrogen receptor-negative human MDA-MB-231 cells assessed as accumulation at G2/M phase at 2 uM after 24 hrs by Propidium iodide staining-based flow cytometric analysis (reference value: 26.33 +/- 3.05%). The format is functional.
Experiment [16] has as its system MCF7. Nature of the experiment: Inhibition of NFkappaB activity in estrogen receptor-positive human MCF7 cells at 2 uM after 24 hrs by SEAP reporter assay. The format is cell-based.
The test system of experiment [17] is MDA-MB-231. The experiment can be described thus: Inhibition of NFkappaB activity in estrogen receptor-negative human MDA-MB-231 cells assessed as reduction of Bcl-xL expression at 2 uM after 24 hrs by Western blotting analysis. The format is cell-based.
For experiment [18], the system named is MDA-MB-231. Nature of the experiment: Inhibition of NFkappaB activity in estrogen receptor-negative human MDA-MB-231 cells assessed as upregulation of p27 gene expression at 2 uM after 24 hrs by luciferase reporter gene assay relative to control. Type of experiment: cell-based.
Experiment [19] deals with MDA-MB-231. The experiment can be described thus: Inhibition of NFkappaB activity in estrogen receptor-negative human MDA-MB-231 cells assessed as cytoplasmic localization of p65 at 2 uM after 24 hrs by ELISA. The format is cell-based.
The subject of experiment [20] is MDA-MB-231. The experiment can be described thus: Inhibition of NFkappaB activity in estrogen receptor-negative human MDA-MB-231 cells assessed as inhibition of cyclin D1 promoter activation at 2 uM by chromatin immunoprecipitation assay. The format is cell-based.
Experiment [21] relates to MDA-MB-231. The experiment can be described thus: Inhibition of NFkappaB activity in estrogen receptor-negative human MDA-MB-231 cells assessed as reduction of cyclin D1 expression at 2 uM after 24 hrs by Western blotting analysis. Type of experiment: cell-based.
Experiment [22] relates to MDA-MB-231. Nature of the experiment: Inhibition of NFkappaB activity in estrogen receptor-negative human MDA-MB-231 cells assessed as reduction of p65 expression at 2 uM after 24 hrs by Western blotting analysis. Type of experiment: cell-based.

Usually IC50 stands for the concentration at which inhibition is half-maximal.

Take `CC(=O)/C=C/C[C@@H]1CC=CC(=O)O1`: in [1], the result was inactive. In addition, the NF-kappaB activity inhibition result in [2] was “Active”. Moreover, the inhibition result in experiment [3] and in experiment [16] was “Active” throughout. In addition, the Activity in experiment [4] came to 6%; in [5], 68%; in experiment [15], 26%. The outcome in experiment [6], in [7], in experiment [8], in [9], in experiment [12] and in [13] was Active. Besides, the outcome in experiment [14] was Active. The values for the IC50 in experiment [10] and in experiment [11] were 3.36 µM and 3.07 µM, respectively.

As to `O=C(/C=C/C[C@@H]1CC=CC(=O)O1)CCc1ccccc1` [R-RUGULACTONE], the result in experiment [1] was inactive. In experiment [2], the NF-kappaB activity inhibition result was “Active”. Besides, the inhibition entry in experiment [3] and in experiment [16] was “Active” each time. The Activity turned out to be 8.33% in [4], 70% in experiment [5] and 21.66% in [15]. Moreover, the outcome in experiment [6], in experiment [7], in experiment [8], in [9], in experiment [12] and in experiment [13] was Active. Besides, the result in [14] was Active. The IC50 was determined as 3.59 µM in experiment [10] and 3.44 µM in experiment [11].

Take `CCCCCCCCCCCCCCCCCC(=O)/C=C/C[C@@H]1CC=CC(=O)O1`: the inhibition entry in [17], in experiment [3], in experiment [19], in experiment [20], in experiment [21] and in experiment [16] was “Active” each time. In addition, the inhibition entry in experiment [22] is “Active”. Also, in experiment [1], the outcome was inactive. Moreover, the NF-kappaB activity inhibition entry in [2] is “Active”. For the same molecule, the results for the Activity in experiment [4], in experiment [5] and in experiment [15] were 6.33%, 74% and 19.6%, respectively. Besides, the result in experiment [6], in [7], in [8], in experiment [9], in experiment [12] and in experiment [13] was Active. Besides, the outcome in experiment [14] was Active. Moreover, the fold change (FC) in [18] was 2.5. The IC50 came to 2.32 µM in experiment [10] and 2.1 µM in [11].
